What was measured:
[1] = tested on: phosphorylation of myosin light chain T18/S19; experiment: In Cell Western for phosphorylation of myosin light chain in A7r5 cells; format: cell-based, rat
Text: The rat smooth muscle cell line A7r5 was used, and the A7r5 cell culture conditions were DMEM containing 10% FBS. Phspho-MLC-T18/S19 specific antibody and a second detection antibody were used to detect the phosphorylation level of myosin light chain by In Cell Western. Cells treated with positive compounds were used as positive controls, while the group without compounds but with compound solvents was used as negative controls. DRAQ5 stained cell nuclei were used as internal references. GraphPad Prism 7.0 software was used, and fitting was carried out by using a non-linear regression curve with varying slopes to determine the absolute IC50 value.
On the first day, A7r5 cells were resuspended in serum-free medium and seeded into 384 wells of PDL coated transparent black plates at a density of 5000 cells per well. Serum starvation culture was performed for 4 hours, and the cells were incubated with the compound in serum-free medium for 1 hour. 50 µL of 8% PFA (polyformaldehyde) was added to each well and fixed at room temperature for 1 hour. The liquid in the wells was discard and 90 µL of ice methanol was added to each well to permeabilize the cells at 4 °C for 1 hour. Then, PBST (0.1% Tween20-PBS) was added using an automatic separator to wash three times. After patting the plate for drying, 50 µL blocking solution was added to each well for sealing at room temperature for 1 hour. The phspho-MLC-T18/S19 specific antibody was diluted with the blocking solution at a ratio of 1:200. After adding 20 µL to each well, incubation was carried out overnight at 4 °C with a sealed film.
On the second day, the liquid in the wells was discarded and PBST was added using an automatic separator to wash the plate 5 times. After patting the plate for drying, the second detection antibody was diluted with blocking solution at a ratio of 1:800 and DRAQ5 at a ratio of 1:1000. After adding 20 µL to each well, incubation was carried out at room temperature for 1 hour. Then, the liquid in the wells was discarded and PBST was added using an automatic separator to wash the plate 3 times, followed by adding ddH2O to wash the plate 3 times. After patting the plate for drying, it was scaned using a LICOR Odyssey near-infrared imaging scanner.

[2] = target: ROCK1 (Homo sapiens, UniProt Q13464); experiment: ROCK1 kinase enzymatic activity (HTRF, STK2 substrate); format: biochemical; conditions: ROCK1 kinase reaction 20 minutes at room temperature
Chain of ROCK1 (Q13464 whole entry): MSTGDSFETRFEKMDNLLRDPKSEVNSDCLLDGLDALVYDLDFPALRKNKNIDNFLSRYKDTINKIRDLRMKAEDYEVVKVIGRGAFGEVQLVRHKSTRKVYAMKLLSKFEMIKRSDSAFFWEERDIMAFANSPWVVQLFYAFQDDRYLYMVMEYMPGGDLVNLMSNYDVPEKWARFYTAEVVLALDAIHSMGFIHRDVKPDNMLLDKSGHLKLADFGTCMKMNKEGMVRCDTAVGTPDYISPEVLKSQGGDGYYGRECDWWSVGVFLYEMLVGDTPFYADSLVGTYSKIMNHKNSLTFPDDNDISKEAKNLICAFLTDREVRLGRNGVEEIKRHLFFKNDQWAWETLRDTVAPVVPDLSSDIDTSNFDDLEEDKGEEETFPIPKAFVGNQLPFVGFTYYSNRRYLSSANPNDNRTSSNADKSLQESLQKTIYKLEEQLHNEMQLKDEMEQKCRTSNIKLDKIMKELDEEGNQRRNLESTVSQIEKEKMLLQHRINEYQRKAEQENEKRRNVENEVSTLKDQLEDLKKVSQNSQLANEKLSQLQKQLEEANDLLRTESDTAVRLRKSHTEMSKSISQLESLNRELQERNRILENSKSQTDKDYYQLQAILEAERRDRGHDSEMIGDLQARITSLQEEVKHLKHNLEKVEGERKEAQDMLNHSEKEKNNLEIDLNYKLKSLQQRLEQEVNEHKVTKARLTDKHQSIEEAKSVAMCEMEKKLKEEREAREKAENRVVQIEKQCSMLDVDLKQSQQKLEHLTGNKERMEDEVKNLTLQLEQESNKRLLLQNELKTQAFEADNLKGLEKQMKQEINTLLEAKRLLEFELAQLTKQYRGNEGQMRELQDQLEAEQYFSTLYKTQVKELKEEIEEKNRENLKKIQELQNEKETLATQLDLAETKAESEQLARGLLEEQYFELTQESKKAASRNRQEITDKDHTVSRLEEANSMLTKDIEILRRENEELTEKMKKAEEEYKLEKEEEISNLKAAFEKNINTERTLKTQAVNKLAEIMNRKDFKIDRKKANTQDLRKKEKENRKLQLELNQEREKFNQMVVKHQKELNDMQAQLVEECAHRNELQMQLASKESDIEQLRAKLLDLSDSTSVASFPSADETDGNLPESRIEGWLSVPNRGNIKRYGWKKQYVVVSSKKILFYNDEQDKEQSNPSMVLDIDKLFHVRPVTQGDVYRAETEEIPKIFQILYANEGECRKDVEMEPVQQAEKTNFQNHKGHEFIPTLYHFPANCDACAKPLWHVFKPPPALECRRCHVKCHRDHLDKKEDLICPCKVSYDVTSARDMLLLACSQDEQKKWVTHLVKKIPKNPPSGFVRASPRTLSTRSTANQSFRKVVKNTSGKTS
Text: (§1) The kinase activity data was expressed by comparing the kinase activity of the test compound and that of the blank group (containing only DMSO), and the IC50 value was obtained by curve fitting using Prism software (GraphPad7.0).

[3] = target: ROCK2 (Homo sapiens, UniProt O75116); experiment: ROCK2 kinase enzymatic activity (HTRF, STK2 substrate); format: biochemical; conditions: ROCK2 kinase reaction 30 minutes at room temperature
Chain of ROCK2 (O75116 whole entry): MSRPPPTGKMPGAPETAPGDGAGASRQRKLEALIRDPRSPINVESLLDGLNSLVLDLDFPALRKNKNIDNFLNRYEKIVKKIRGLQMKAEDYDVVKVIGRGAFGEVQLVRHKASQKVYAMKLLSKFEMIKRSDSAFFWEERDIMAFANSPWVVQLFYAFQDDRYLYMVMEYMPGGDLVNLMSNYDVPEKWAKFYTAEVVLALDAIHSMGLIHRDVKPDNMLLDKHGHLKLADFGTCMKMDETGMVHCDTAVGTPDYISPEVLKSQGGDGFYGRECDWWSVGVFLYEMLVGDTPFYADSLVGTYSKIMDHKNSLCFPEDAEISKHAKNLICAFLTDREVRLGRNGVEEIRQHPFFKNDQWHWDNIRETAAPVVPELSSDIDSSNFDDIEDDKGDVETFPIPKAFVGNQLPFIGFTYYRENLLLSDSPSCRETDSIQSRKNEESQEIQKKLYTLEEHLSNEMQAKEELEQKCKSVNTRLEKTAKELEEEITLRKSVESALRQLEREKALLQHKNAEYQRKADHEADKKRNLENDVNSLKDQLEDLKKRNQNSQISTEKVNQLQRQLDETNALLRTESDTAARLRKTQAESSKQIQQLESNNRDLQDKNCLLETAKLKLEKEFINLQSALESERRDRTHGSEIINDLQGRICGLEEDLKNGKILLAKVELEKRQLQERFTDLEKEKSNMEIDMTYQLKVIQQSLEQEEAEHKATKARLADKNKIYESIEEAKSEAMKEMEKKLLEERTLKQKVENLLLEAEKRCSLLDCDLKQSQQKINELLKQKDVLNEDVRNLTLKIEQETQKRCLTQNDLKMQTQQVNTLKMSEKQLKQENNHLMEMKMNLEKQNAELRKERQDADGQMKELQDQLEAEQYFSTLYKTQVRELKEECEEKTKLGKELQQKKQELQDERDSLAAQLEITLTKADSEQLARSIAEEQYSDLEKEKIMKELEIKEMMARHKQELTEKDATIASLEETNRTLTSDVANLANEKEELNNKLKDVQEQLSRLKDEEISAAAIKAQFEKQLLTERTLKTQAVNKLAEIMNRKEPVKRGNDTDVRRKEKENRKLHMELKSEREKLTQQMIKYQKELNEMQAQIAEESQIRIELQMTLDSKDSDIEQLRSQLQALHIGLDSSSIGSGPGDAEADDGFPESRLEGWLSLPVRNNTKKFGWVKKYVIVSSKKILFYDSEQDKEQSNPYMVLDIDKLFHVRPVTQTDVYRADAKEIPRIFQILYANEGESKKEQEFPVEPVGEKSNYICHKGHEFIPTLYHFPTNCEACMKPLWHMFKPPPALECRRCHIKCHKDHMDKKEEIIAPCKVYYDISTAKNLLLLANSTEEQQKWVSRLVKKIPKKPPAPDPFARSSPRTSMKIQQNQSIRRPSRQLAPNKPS
Text: as §1

Structure (SMILES)	IC50 ([1]; Rattus norvegicus, A7R5, 1 h) [nM]	IC50 [2] [nM]	IC50 [3] [nM]	IC50 ([1]; rat smooth muscle cell line A7r5, 1 hour compound incubation in serum-free medium, absolute IC50) [nM]
CC(C)NC(=O)COc1cccc(-c2nc(Nc3ccc4[nH]ncc4c3)c3ccccc3n2)c1 [Belumosudil, reference compound]	3940			
N#CCC1(n2cc(-c3ncnc4[nH]ccc34)c(N)n2)CCS(=O)(=O)CC1 [Example 1, 2-(4-(3-amino-4-(7H-pyrrolo[2,3-d]pyrimidin-4-yl)-1H-pyrazol-1-yl)-1,1-dioxidotetrahydro-2H-thiopyran-4-yl)acetonitrile]	92	< 2	< 1	
N#CCC1(n2cc(-c3ncnc4[nH]ccc34)c(N)n2)CS(=O)(=O)C1 [Example 2, 2-(3-(3-amino-4-(7H-pyrrolo[2,3-d]pyrimidin-4-yl)-1H-pyrazol-1-yl)-1,1-dioxothietan-3-yl)acetonitrile]	85	< 2	< 1	
N#CCC1(n2cc(-c3ncnc4[nH]ccc34)c(N)n2)CCS(=O)(=O)C1 (stereo not shown) [Example 3, 2-(3-(3-amino-4-(7H-pyrrolo[2,3-d]pyrimidin-4-yl)-1H-pyrazol-1-yl)-1,1-dioxotetrahydrothiophen-3-yl)acetonitrile]	78	< 2	< 1	
N#CCC1(n2cc(-c3ncnc4[nH]ccc34)c(N)n2)CCCC1 [Example 4, 2-(1-(3-amino-4-(7H-pyrrolo[2,3-d]pyrimidin-4-yl)-1H-pyrazol-1-yl)cyclopentyl)acetonitrile]	160	< 10	< 10	
N#CCC1(n2cc(-c3ncnc4[nH]ccc34)c(N)n2)CCCCC1 [Example 5, 2-(1-(3-amino-4-(7H-pyrrolo[2,3-d]pyrimidin-4-yl)-1H-pyrazol-1-yl)cyclohexyl)acetonitrile]	111	< 5	< 5	
N#CCC1(n2cc(-c3ncnc4[nH]ccc34)c(N)n2)CC(F)(F)C1 [Example 6, 2-(1-(3-amino-4-(7H-pyrrolo[2,3-d]pyrimidin-4-yl)-1H-pyrazol-1-yl)-3,3-difluorocyclobutyl)acetonitrile]	102	< 5	< 5	
N#CC1CCCC1n1cc(-c2ncnc3[nH]ccc23)c(N)n1 (stereo not shown) [Example 7, 2-(3-amino-4-(7H-pyrrolo[2,3-d]pyrimidin-4-yl)-1H-pyrazol-1-yl)cyclopentane-1-nitrile]	1860	< 50	< 50	
N#CC1CCCCC1n1cc(-c2ncnc3[nH]ccc23)c(N)n1 (stereo not shown) [Example 8, 2-(3-amino-4-(7H-pyrrolo[2,3-d]pyrimidin-4-yl)-1H-pyrazol-1-yl)cyclohexane-1-nitrile]	1940	< 50	< 50	
N#CCC1(n2cc(-c3ncnc4[nH]ccc34)c(N)n2)CC(C#N)C1 (stereo not shown) [Example 9, 3-(3-amino-4-(7H-pyrrolo[2,3-d]pyrimidin-4-yl)-1H-pyrazol-1-yl)-3-(cyanomethyl)cyclobutane-1-carbonitrile]	68	< 10	< 10	
N#CC[C@]1(n2cc(-c3ncnc4[nH]ccc34)c(N)n2)C[C@H](C#N)C1 [Example 10, (1r,3r)-3-(3-amino-4-(7H-pyrrolo[2,3-d]pyrimidin-4-yl)-1H-pyrazol-1-yl)-3-(cyanomethyl)cyclobutane-1-carbonitrile]	48	< 2	< 1	
N#CC[C@]1(n2cc(-c3ncnc4[nH]ccc34)c(N)n2)C[C@@H](C#N)C1 [Example 11, (1s,3s)-3-(3-amino-4-(7H-pyrrolo[2,3-d]pyrimidin-4-yl)-1H-pyrazol-1-yl)-3-(cyanomethyl)cyclobutane-1-carbonitrile]	466	< 10	< 10	
N#CCC(C1CC1)n1cc(-c2ncnc3[nH]ccc23)c(N)n1 (stereo not shown) [Example 12, 3-(3-amino-4-(7H-pyrrolo[2,3-d]pyrimidin-4-yl)-1H-pyrazol-1-yl)-3-cyclopropylpropanitrile]	85	< 5	< 2	
N#CCC(C1CCC1)n1cc(-c2ncnc3[nH]ccc23)c(N)n1 (stereo not shown) [Example 13, 3-(3-amino-4-(7H-pyrrolo[2,3-d]pyrimidin-4-yl)-1H-pyrazol-1-yl)-3-cyclobutylpropionitrile]	122	< 5	< 5	
N#CCC(C1CCCCC1)n1cc(-c2ncnc3[nH]ccc23)c(N)n1 (stereo not shown) [Example 14, 3-(3-amino-4-(7H-pyrrolo[2,3-d]pyrimidin-4-yl)-1H-pyrazol-1-yl)-3-cyclohexylpropionitrile]	175	< 5	< 5	
CC1(C)CC(C(CC#N)n2cc(-c3ncnc4[nH]ccc34)c(N)n2)C1 (stereo not shown) [Example 15, 3-(3-amino-4-(7H-pyrrolo[2,3-d]pyrimidin-4-yl)-1H-pyrazol-1-yl)-3-(3,3-dimethylcyclobutyl)propionitrile]	215	< 5	< 5	
CC1CC(C(CC#N)n2cc(-c3ncnc4[nH]ccc34)c(N)n2)C1 (stereo not shown) [Example 16, 3-(3-amino-4-(7H-pyrrolo[2,3-d]pyrimidin-4-yl)-1H-pyrazol-1-yl)-3-(3-methylcyclobutyl)propanitrile]	284	< 5	< 5	
CC1CC([C@H](CC#N)n2cc(-c3ncnc4[nH]ccc34)c(N)n2)C1 (stereo partly drawn) [Example 17, (3S)-3-(3-amino-4-(7H-pyrrolo[2,3-d]pyrimidin-4-yl)-1H-pyrazol-1-yl)-3-(-3-methylcyclobutyl)propanitrile]	225	< 5	< 5	
CC1CC([C@@H](CC#N)n2cc(-c3ncnc4[nH]ccc34)c(N)n2)C1 (stereo partly drawn) [Example 18, (3R)-3-(3-amino-4-(7H-pyrrolo[2,3-d]pyrimidin-4-yl)-1H-pyrazol-1-yl)-3-(-3-methylcyclobutyl)propanitrile]	296	< 5	< 5	
N#CCC1(n2cc(-c3ncnc4[nH]ccc34)c(N)n2)CC2(CCC2)C1 [Example 19, 2-(2-(3-amino-4-(7H-pyrrolo[2,3-d]pyrimidin-4-yl)-1H-pyrazol-1-yl)spiro[3.3]heptan-2-yl)acetonitrile]	167	< 5	< 5	
N#CCC(C1CC2(CCC2)C1)n1cc(-c2ncnc3[nH]ccc23)c(N)n1 (stereo not shown) [Example 20, 3-(3-amino-4-(7H-pyrrolo[2,3-d]pyrimidin-4-yl)-1H-pyrazol-1-yl)-3-(spiro[3.3]heptan-2-yl)propionitrile]	218	< 5	< 5	
N#CCC(C1CC2(CC2)C1)n1cc(-c2ncnc3[nH]ccc23)c(N)n1 (stereo not shown) [Example 21, 3-(3-amino-4-(7H-pyrrolo[2,3-d]pyrimidin-4-yl)-1H-pyrazol-1-yl)-3-(spiro[2.3]hexan-5-yl)propionitrile]	185	< 5	< 5	
Cc1ccc(C(=O)OCc2ccc([C@@H](CN)C(=O)Nc3ccc4cnccc4c3)cc2)c(C)c1 [Netarsudil, reference compound]				288
C[C@H]1CNCCCN1S(=O)(=O)c1cccc2cncc(F)c12 [Ripasudil, reference compound]	1680		29.6	
